Assay results as given in US7863416B2, “Nociceptin-based analgesics” (Synvax, Inc., priority 2001, dated 2011).
Numbered stars: 1 amine (or outer) side, 2 acyl side, 3 side chain; on linkers, the order of the positions; unused ones are H or OH. Square brackets hold non-standard residues; d marks the D form. Peptide text beside a SMILES is read from it. * marks the point of attachment. ξ: configuration not given here. X1 = O=C([C@H](CCc1ccc([N+](=O)[O-])cc1[N+](=O)[O-])N[*:1])[*:2]; Trp(5-CN) = N#Cc1ccc2[nH]cc(C[C@H](N)C(=O)O)c2c1; Phe(4-COOH) = N[C@@H](Cc1ccc(C(=O)O)cc1)C(=O)O; Phe(4-CN) = N#Cc1ccc(C[C@H](N)C(=O)O)cc1; Phe(4-F) = N[C@@H](Cc1ccc(F)cc1)C(=O)O; Phe(4-Me) = Cc1ccc(C[C@H](N)C(=O)O)cc1; ξNip = O=C(C1CCCN([*:1])C1)[*:2]; ξβ2hAla = CC(CN[*:1])C(=O)[*:2]; Phg = N[C@H](C(=O)O)c1ccccc1; Ac6c = NC1(C(=O)O)CCCCC1; Heptanoyl = CCCCCCC(=O)*; Dab = NCC[C@H](N)C(=O)O; Dap = NC[C@H](N)C(=O)O; Propionyl = CCC(=O)*; Butyryl = CCCC(=O)*; Ahx = NCCCCCC(=O)O

Columns and labels:
human ORL1 [1] = molecular target: T1, human ORL1 (Homo sapiens, UniProt P41146); test: [3H]nociceptin binding to membranes of CHO cells transfected with human ORL1; conditions: for Hill Coefficient: Table 5
T1 construct: expressed in transfected cells; host or cells: CHO cells (G418-selected)
T1 sequence (P41146 whole entry): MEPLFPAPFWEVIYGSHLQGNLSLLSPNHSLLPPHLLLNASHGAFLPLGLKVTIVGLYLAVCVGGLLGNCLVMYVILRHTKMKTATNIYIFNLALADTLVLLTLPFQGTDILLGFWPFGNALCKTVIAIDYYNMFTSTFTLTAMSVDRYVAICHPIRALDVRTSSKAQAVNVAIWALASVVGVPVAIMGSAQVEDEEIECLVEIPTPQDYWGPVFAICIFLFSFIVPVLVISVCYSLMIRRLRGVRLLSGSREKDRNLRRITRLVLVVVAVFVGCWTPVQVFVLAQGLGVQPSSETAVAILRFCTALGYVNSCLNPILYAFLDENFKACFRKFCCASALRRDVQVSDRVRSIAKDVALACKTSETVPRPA

human ORL1 [2] = molecular target: T1, human ORL1; test: Stimulation of [35S]GTPγS binding in membranes of CHO cells transfected with human ORL-1; format: biochemical; conditions: for Emax: read-out: % Stimulation ± SEM of [35S]GTPγS binding; for EC50 ± SEM, stimulation of [35S]GTPγS binding: Table 6; for agonist/antagonist character at ORL1: in words; for [35S]GTPγS Binding Percent Stimulation: Table 1, relative to nociceptin
Method: First, CHO cells transfected with human ORL-1 are scraped from tissue culture dishes into 20 mM HEPES, 1 mM EDTA, and then centrifuged at 500×g for 10 minutes. The cells are then re-suspended in this buffer and homogenized using a Polytron Homogenizer.
The cellular homogenate is next centrifuged at 20,000×g for 20 minutes. Following this, the resulting pellet is re-suspended in a buffer containing 20 mM HEPES, 10 mM MgCl2, and 100 mM NaCl, having a resulting pH of 7.4. The suspension is then re-centrifuged at 20,000×g and suspended once more in the above-listed buffer. The pellet may be frozen at −70° C. prior to the final centrifugation. For the binding assay, membranes (10-20 μg protein) are incubated with [^35S]GTPγγS (50 pM), GDP (usually 10 μM), and the desired compound. The total volume of the mixture is 1 ml, which is incubated for 60 min at 25° C.
Following incubation, samples are filtered over glass fiber filters and counted. […]
In these [^35S]GTPγS assays, binding was conducted as described above. EC50 values and percent stimulation were determined using the program Prism.

Molecule	Hill Coefficient (human ORL1 [1])	Emax (human ORL1 [2])	also measured
CC(=O)N[C@@H](CCCNC(=N)N)C(=O)N[C@@H](Cc1ccc(O)cc1)C(=O)N[C@@H](CCc1ccc([N+](=O)[O-])cc1[N+](=O)[O-])C(=O)N[C@@H](CCCNC(=N)N)C(=O)N[C@@H](Cc1c[nH]c2ccccc12)C(=O)N[C@@H](CCCNC(=N)N)C(N)=O [VII-71-B, Ac-Arg-Tyr-hPhe(2,4-di-NO2)-Arg-Trp-Arg-NH2] (Ac-RY[X1]RWR-NH2)	0.88	33.6 ± 16.8%	
CC(=O)N[C@@H](CCCNC(=N)N)C(=O)N[C@@H](Cc1ccc(C)cc1)C(=O)N[C@@H](Cc1ccc(O)cc1)C(=O)N[C@@H](CCCNC(=N)N)C(=O)N[C@@H](Cc1c[nH]c2ccccc12)C(=O)N[C@@H](CCCNC(=N)N)C(N)=O [VII-15-B, Ac-Arg-Phe(4-Me)-Tyr-Arg-Trp-Arg-NH2] (Ac-R[Phe(4-Me)]YRWR-NH2)	0.79	59.8 ± 16.2%	
CC(=O)N[C@@H](CCCNC(=N)N)C(=O)N[C@@H](Cc1ccc(F)cc1)C(=O)N[C@@H](Cc1ccc(F)cc1)C(=O)N[C@@H](CCCNC(=N)N)C(=O)N[C@@H](Cc1c[nH]c2ccccc12)C(=O)N[C@@H](CCCNC(=N)N)C(N)=O [VII-33-B, Ac-Arg-Phe(4-F)-Phe(4-F)-Arg-Trp-Arg-NH2] (Ac-R[Phe(4-F)][Phe(4-F)]RWR-NH2)	0.89	< 20%	EC50 ± SEM, stimulation of [35S]GTPγS binding (human ORL1 [2]): FLAT
CC(=O)N[C@@H](CCCNC(=N)N)C(=O)N[C@@H](Cc1ccc(C#N)cc1)C(=O)N[C@@H](Cc1ccc(O)cc1)C(=O)N[C@@H](CCCNC(=N)N)C(=O)N[C@@H](Cc1c[nH]c2ccccc12)C(=O)N[C@@H](CCCNC(=N)N)C(N)=O [VII-43-C, Ac-Arg-Phe(4-CN)-Tyr-Arg-Trp-Arg-NH2] (Ac-R[Phe(4-CN)]YRWR-NH2)	0.73	49.7 ± 6.6%	agonist/antagonist character at ORL1 (human ORL1 [2]): partial agonist
N=C(N)NCCC[C@H](NC(=O)[C@H](Cc1c[nH]c2ccccc12)NC(=O)[C@H](CCCNC(=N)N)NC(=O)[C@H](Cc1ccc(O)cc1)NC(=O)[C@H](Cc1ccc(O)cc1)NC(=O)[C@H](CCCNC(=N)N)NC(=O)C1(N)CCCCC1)C(N)=O [VII-4-B, 1-aminocyclohexanoyl-Arg-Tyr-Tyr-Arg-Trp-Arg-NH2] (H-[Ac6c]RYYRWR-NH2)	1.0	< 20%	EC50 ± SEM, stimulation of [35S]GTPγS binding (human ORL1 [2]): FLAT
Ac-RYYRWR-NH2 [Ac-RYYRWR-NH2] [listing 1 of 2 here]			EC50 (human ORL1 [2]): 1.2 nM
CC(=O)N[C@@H](CCCNC(=N)N)C(=O)N[C@@H](Cc1ccc(C)cc1)C(=O)N[C@@H](Cc1ccc(C)cc1)C(=O)N[C@@H](CCCNC(=N)N)C(=O)N[C@@H](Cc1c[nH]c2ccccc12)C(=O)N[C@@H](CCCNC(=N)N)C(N)=O [VII-17-B, Ac-Arg-Phe(4-Me)-Phe(4-Me)-Arg-Trp-Arg-NH2] (Ac-R[Phe(4-Me)][Phe(4-Me)]RWR-NH2)	1.06	< 20%	EC50 ± SEM, stimulation of [35S]GTPγS binding (human ORL1 [2]): FLAT
CCCC(=O)N[C@@H](CCCNC(=N)N)C(=O)N[C@@H](Cc1ccc(O)cc1)C(=O)N[C@@H](Cc1ccc(O)cc1)C(=O)N[C@@H](CCCNC(=N)N)C(=O)N[C@@H](Cc1c[nH]c2ccccc12)C(=O)N[C@@H](CCCNC(=N)N)C(N)=O [IV-15-A, Butryl-RYYRWR-NH2] (Butyryl-RYYRWR-NH2)			[35S]GTPγS Binding Percent Stimulation (human ORL1 [2]): 63%
CC(CN)C(=O)N[C@@H](CCCNC(=N)N)C(=O)N[C@@H](Cc1ccc(O)cc1)C(=O)N[C@@H](Cc1ccc(O)cc1)C(=O)N[C@@H](CCCNC(=N)N)C(=O)N[C@@H](Cc1c[nH]c2ccccc12)C(=O)N[C@@H](CCCNC(=N)N)C(N)=O (stereo partly drawn) [VII-3-A, β-aminoisobutryl-Arg-Tyr-Tyr-Arg-Trp-Arg-NH2] (ξβ2hAla-RYYRWR-NH2)	0.72	29.1 ± 1.9%	
CC(=O)N[C@@H](CCCNC(=N)N)C(=O)N[C@@H](Cc1ccc(F)cc1)C(=O)N[C@@H](Cc1ccc(O)cc1)C(=O)N[C@@H](CCCNC(=N)N)C(=O)N[C@@H](Cc1c[nH]c2ccccc12)C(=O)N[C@@H](CCCNC(=N)N)C(N)=O [VII-31-B, Ac-Arg-Phe(4-F)-Tyr-Arg-Trp-Arg-NH2] (Ac-R[Phe(4-F)]YRWR-NH2)	0.81	54.4 ± 1.2%	
CC(=O)N[C@@H](CCCNC(=N)N)C(=O)N[C@H](C(=O)N[C@H](C(=O)N[C@@H](CCCNC(=N)N)C(=O)N[C@@H](Cc1c[nH]c2ccccc12)C(=O)N[C@@H](CCCNC(=N)N)C(N)=O)c1ccccc1)c1ccccc1 [VII-11-B, Ac-Arg-Phg-Phg-Arg-Trp-Arg-NH2] (Ac-R[Phg][Phg]RWR-NH2)	0.93		
CCC(=O)N[C@@H](CCCNC(=N)N)C(=O)N[C@@H](Cc1ccc(O)cc1)C(=O)N[C@@H](Cc1ccc(O)cc1)C(=O)N[C@@H](CCCNC(=N)N)C(=O)N[C@@H](Cc1c[nH]c2ccccc12)C(=O)N[C@@H](CCCNC(=N)N)C(N)=O [IV-16-C, Propionyl-RYYRWR-NH2] (Propionyl-RYYRWR-NH2)			IC50 (human ORL1 [1]): 1.2 nM; [35S]GTPγS Binding Percent Stimulation (human ORL1 [2]): 82%; agonist/antagonist character at ORL1 (human ORL1 [2]): nearly full agonist
Ac-RYYRWR-NH2 [Ac-RYYRWR-NH2] [listing 2 of 2 here]			[35S]GTPγS Binding Percent Stimulation (human ORL1 [2]): 100%
CC(=O)N[C@@H](CCN)C(=O)N[C@@H](Cc1ccc(O)cc1)C(=O)N[C@@H](Cc1ccc(O)cc1)C(=O)N[C@@H](CCCNC(=N)N)C(=O)N[C@@H](Cc1c[nH]c2ccccc12)C(=O)N[C@@H](CCCNC(=N)N)C(N)=O [VII-67-A, Ac-Dab-Tyr-Tyr-Arg-Trp-Arg-NH2] (Ac-[Dab]YYRWR-NH2)	1.07	< 20%	EC50 ± SEM, stimulation of [35S]GTPγS binding (human ORL1 [2]): FLAT
CC(=O)N[C@@H](CCCNC(=N)N)C(=O)N[C@@H](Cc1ccc(C(=O)O)cc1)C(=O)N[C@@H](Cc1ccc(O)cc1)C(=O)N[C@@H](CCCNC(=N)N)C(=O)N[C@@H](Cc1c[nH]c2ccccc12)C(=O)N[C@@H](CCCNC(=N)N)C(N)=O [VII-19-B, Ac-Arg-Phe(4-COOH)-Tyr-Arg-Trp-Arg-NH2] (Ac-R[Phe(4-COOH)]YRWR-NH2)	1.0	45.5 ± 8%	
CC(=O)NCCCCCC(=O)N[C@@H](Cc1ccc(O)cc1)C(=O)N[C@@H](Cc1ccc(O)cc1)C(=O)N[C@@H](CCCNC(=N)N)C(=O)N[C@@H](Cc1c[nH]c2ccccc12)C(=O)N[C@@H](CCCNC(=N)N)C(N)=O [VII-53-B, Ac-ε-aminocaproyl-Tyr-Tyr-Arg-Trp-Arg-NH2] (Ac-[Ahx]YYRWR-NH2)	0.86	39.5 ± 4%	
CC(=O)N[C@@H](CN)C(=O)N[C@@H](Cc1ccc(O)cc1)C(=O)N[C@@H](Cc1ccc(O)cc1)C(=O)N[C@@H](CCCNC(=N)N)C(=O)N[C@@H](Cc1c[nH]c2ccccc12)C(=O)N[C@@H](CCCNC(=N)N)C(N)=O [VII-65-F, Ac-Dap-Tyr-Tyr-Arg-Trp-Arg-NH2] (Ac-[Dap]YYRWR-NH2)	1.1	13.7 ± 1.18%	EC50 ± SEM, stimulation of [35S]GTPγS binding (human ORL1 [2]): FLAT
N=C(N)NCCC[C@H](NC(=O)[C@H](Cc1c[nH]c2ccccc12)NC(=O)[C@H](CCCNC(=N)N)NC(=O)[C@H](Cc1ccc(O)cc1)NC(=O)[C@H](Cc1ccc(O)cc1)NC(=O)[C@H](CCCNC(=N)N)NC(=O)C1CCCNC1)C(N)=O (stereo partly drawn) [VII-1-A, Nipacotyl-Arg-Tyr-Tyr-Arg-Trp-Arg-NH2] (ξNip-RYYRWR-NH2)	0.97	< 20%	EC50 ± SEM, stimulation of [35S]GTPγS binding (human ORL1 [2]): FLAT
CC(=O)N[C@@H](CCCNC(=N)N)C(=O)N[C@@H](Cc1ccc(O)cc1)C(=O)N[C@@H](Cc1ccc(O)cc1)C(=O)N[C@@H](CCCNC(=N)N)C(=O)N[C@@H](Cc1c[nH]c2ccc(C#N)cc12)C(=O)N[C@@H](CCCNC(=N)N)C(N)=O [VII-51-A, Ac-Arg-Tyr-Tyr-Arg-Trp(5-CN)-Arg-NH2] (Ac-RYYR[Trp(5-CN)]R-NH2)	0.7	49.1 ± 0.19%	Ki (human ORL1 [1]): 0.3 ± 0.133 nM
CCCCCCC(=O)N[C@@H](CCCNC(=N)N)C(=O)N[C@@H](Cc1ccc(O)cc1)C(=O)N[C@@H](Cc1ccc(O)cc1)C(=O)N[C@@H](CCCNC(=N)N)C(=O)N[C@@H](Cc1c[nH]c2ccccc12)C(=O)N[C@@H](CCCNC(=N)N)C(N)=O [IV-18-C, Heptanoyl-RYYRWR-NH2] (Heptanoyl-RYYRWR-NH2)			IC50 (human ORL1 [1]): 2.6 nM; [35S]GTPγS Binding Percent Stimulation (human ORL1 [2]): 54%
CC(=O)N[C@@H](CCCNC(=N)N)C(=O)N[C@@H](Cc1ccc(O)cc1)C(=O)N[C@@H](Cc1ccc(O)cc1)C(=O)NCCCCCC(=O)N[C@@H](Cc1c[nH]c2ccccc12)C(=O)N[C@@H](CCCNC(=N)N)C(N)=O [VII-55-A, Ac-Arg-Tyr-Tyr-ε-aminocaproyl-Trp-Arg-NH2] (Ac-RYY[Ahx]WR-NH2)	1.12	26.6 ± 1.95%	
CC(=O)N[C@@H](CCCNC(=N)N)C(=O)N[C@@H](Cc1ccc(O)cc1)C(=O)N[C@@H](Cc1ccc(F)cc1)C(=O)N[C@@H](CCCNC(=N)N)C(=O)N[C@@H](Cc1c[nH]c2ccccc12)C(=O)N[C@@H](CCCNC(=N)N)C(N)=O [VII-61-B, Ac-Arg-Tyr-Phe(4-F)-Arg-Trp-Arg-NH2] (Ac-RY[Phe(4-F)]RWR-NH2)	1.05	70.4 ± 1.98%	Ki (human ORL1 [1]): 0.05 nM
Ac-Arg-Phe(SO3H)-Tyr-Arg-Trp-Arg-NH2 (Ac-R[Phe(SO3H)]YRWR-NH2) [VII-27-B]	1.12		
CC(=O)N[C@@H](CCCNC(=N)N)C(=O)N[C@@H](Cc1ccc(O)cc1)C(=O)N[C@H](C(=O)N[C@@H](CCCNC(=N)N)C(=O)N[C@@H](Cc1c[nH]c2ccccc12)C(=O)N[C@@H](CCCNC(=N)N)C(N)=O)c1ccccc1 [VII-13-B, Ac-Arg-Tyr-Phg-Arg-Trp-Arg-NH2] (Ac-RY[Phg]RWR-NH2)	0.73		
